Measured values as given in US10851067B2, “Kv7 channel activators compositions and methods of use” (Knopp Biosciences LLC, priority 2018, dated 2020).

These compounds were tested against Kv7.2/7.3 (Homo sapiens, UniProt O43525+O43526) (assay: Kv7.2/7.3 Thallium Flux Assay). Settings: read-out: Kv7.2/7.3 Activity: EC50 of Kv7.2/Kv7.3 activation.
Type: cell-based
Set-up: host or cells: HEK cells, tetracycline-inducible expression
Description: The Thallium Flux Assay is used as a surrogate indicator of potassium channel activity.
The experimental protocol was adapted from the FluxOR™ II Green Potassium Ion Channel Assay User Guide (Pub. No. MAN0016084, Invitrogen). Conditions were optimized for the Kv7.2/7.3 cell line.
The hKV7.2/7.3 cell line was obtained from Chantest (Cleveland, Ohio 44128) cat. #CT6147.
Kv7.2/7.3 cells were maintained in a media containing DMEM/F12; 50/50 (GIBCO cat. #11330), 10% Fetal Bovine Serum (FBS) (GIBCO cat. #26140), 100 units/mL Penicillin-Streptomycin (GIBCO cat. #15140), 0.005 mg/ml Blasticidin (SIGMA 15205), 0.5 mg/mL Geneticin (GIBCO cat. #10131), and 0.1 mg/mL Zeocin (GIBCO cat. #R25001). One day prior to experimentation, cells were plated in 96 well clear bottom plates (Corning cat. #353219) in a media without Blasticidin, Geneticin, or Zeocin. Channel expression was induced by adding tetracycline (Bioline cat. #BIO87030) at a final concentration of 10 ng/mL.
The test compound is diluted in a mixture of 0.1% DMSO/extracellular solution with an eight-point concentration range from 0.014 μM to 30 μM. Serial dilutions were made on a Biomek NXP (BECKMAN COULTER).
Measurement and Data Analysis:
A plate reader (Enspire, Perkin Elmer) is used to characterize the ion-channel modulating properties of novel compounds using an excitation wavelength of 475 nm and an emission wavelength of 530 nm. After a 15 sec baseline measurement, the stimulus buffer containing thallium and potassium is injected. A final endpoint measure is taken after 90 sec. Responses are normalized to positive control (retigabine, 30 µM max). Mean normalized responses at each concentration tested are fit to the standard Hill equation to generate an EC50 and maximal response.

First: CC(C)(O)c1cc(F)c2nc(NC(=O)C3(CC(F)F)CC3)n(C3CCC3)c2c1 [Example 502, N-(1-cyclobutyl-4-fluoro-6-(2-hydroxypropan-2-yl)-1H-benzo[d]imidazol-2-yl)-1-(2,2-difluoroethyl)cyclopropane-1-carboxamide]
Second: CC(C(=O)Nc1nc2c(F)cc(C(C)(C)O)cc2n1C1CCC1)C(C)(C)C(F)(F)F (single isomer, unassigned) [Example 515, N-(1-cyclobutyl-4-fluoro-6-(2-hydroxypropan-2-yl)-1H-benzo[d]imidazol-2-yl)-4,4,4-trifluoro-2,3,3-trimethylbutanamide]
The EC50 of the first is higher: 3000 to 10000 nM for the first, less than 1000 nM for the second. The second is the more potent here.

CC1(n2c(NC(=O)CC3CC(F)(F)C3(F)F)nc3cc(F)c(Cl)cc32)CCC1 (single isomer, unassigned) [Example 539, N-(6-chloro-5-fluoro-1-(1-methylcyclobutyl)-1H-benzo[d]imidazol-2-yl)-2-(2,2,3,3-tetrafluorocyclobutyl)acetamide] and CC1(n2c(NC(=O)CC3CC(F)(F)C3(F)F)nc3ccc(F)c(F)c32)CCC1 (single isomer, unassigned) [Example 513, N-(6,7-difluoro-1-(1-methylcyclobutyl)-1H-benzo[d]imidazol-2-yl)-2-(2,2,3,3-tetrafluorocyclobutyl)acetamide] cannot be ordered by EC50: less than 1000 nM for the first, less than 1000 nM for the second.

CC(C(=O)Nc1nc2c(F)cc(C#N)cc2n1C1(C)CCC1)C1(C(F)(F)F)CC1 (single isomer, unassigned) [Example 494, N-(6-cyano-4-fluoro-1-(1-methylcyclobutyl)-1H-benzo[d]imidazol-2-yl)-2-(1-(trifluoromethyl)cyclopropyl)propanamide] and CC1(n2c(NC(=O)CC3(C(F)(F)F)CC3)nc3c(F)cc(C#N)cc32)CCC1 [Example 561, N-(6-cyano-4-fluoro-1-(1-methylcyclobutyl)-1H-benzo[d]imidazol-2-yl)-2-(1-(trifluoromethyl)cyclopropyl)acetamide] cannot be ordered by EC50: less than 1000 nM for the first, less than 1000 nM for the second.

CC(C)(n1c(NC(=O)CC2CC(F)(F)C2(F)F)nc2ccc(C#N)cc21)C(F)(F)F (single isomer, unassigned) [Example 488, N-(6-cyano-1-(1,1,1-trifluoro-2-methylpropan-2-yl)-1H-benzo[d]imidazol-2-yl)-2-(2,2,3,3-tetrafluorocyclobutyl)acetamide] and N#Cc1ccc2nc(NC(=O)CC3CC(F)(F)C3(F)F)n(-c3ccc(F)cc3)c2c1 (single isomer, unassigned) [Example 551, N-(6-cyano-1-(4-fluorophenyl)-1H-benzo[d]imidazol-2-yl)-2-(2,2,3,3-tetrafluorocyclobutyl)acetamide] cannot be ordered by EC50: less than 1000 nM for the first, less than 1000 nM for the second.

CC(C)(C)n1c(NC(=O)CC2CC(F)(F)C2(F)F)nc2ccc(F)c(F)c21 (single isomer, unassigned) [Example 509, N-(1-(tert-butyl)-6,7-difluoro-1H-benzo[d]imidazol-2-yl)-2-(2,2,3,3-tetrafluorocyclobutyl)acetamide] and CC(C)(C)n1c(NC(=O)CC2CC(F)(F)C2(F)F)nc2c(F)cc(F)cc21 (single isomer, unassigned) [Example 560, N-(1-(tert-butyl)-4,6-difluoro-1H-benzo[d]imidazol-2-yl)-2-(2,2,3,3-tetrafluorocyclobutyl)acetamide] cannot be ordered by EC50: less than 1000 nM for the first, less than 1000 nM for the second.

CC(C)(C)CC(=O)Nc1nc2c(F)cc(C#N)c(F)c2n1C1(C)CCC1 [Example 517, N-(6-cyano-4,7-difluoro-1-(1-methylcyclobutyl)-1H-benzo[d]imidazol-2-yl)-3,3-dimethylbutanamide] and CC1(n2c(NC(=O)CC(C)(C)C(F)(F)F)nc3c(F)cc(C#N)cc32)CCC1 [Example 486, N-(6-cyano-4-fluoro-1-(1-methylcyclobutyl)-1H-benzo[d]imidazol-2-yl)-4,4,4-trifluoro-3,3-dimethylbutanamide] cannot be ordered by EC50: less than 1000 nM for the first, less than 1000 nM for the second.

Compared with COc1cc(C#N)cc2c1nc(NC(=O)CC1CC(F)(F)C1(F)F)n2C(C)(C)C (stereo not shown) [Example 514, N-(1-(tert-butyl)-6-cyano-4-methoxy-1H-benzo[d]imidazol-2-yl)-2-(2,2,3,3-tetrafluorocyclobutyl)acetamide], COc1cc(C#N)cc2c1nc(NC(=O)CC1(C(F)(F)F)CC1)n2C(C)(C)C [Example 520, N-(1-(tert-butyl)-6-cyano-4-methoxy-1H-benzo[d]imidazol-2-yl)-2-(1-(trifluoromethyl)cyclopropyl)acetamide] is higher in EC50: less than 1000 nM for the first, 3000 to 10000 nM for the second.

CC(C)(O)c1cc(F)c2nc(NC(=O)CC3CC(F)(F)C3(F)F)n(C3(C)CCC3)c2c1 (single isomer, unassigned) [Example 519, N-(4-fluoro-6-(2-hydroxypropan-2-yl)-1-(1-methylcyclobutyl)-1H-benzo[d]imidazol-2-yl)-2-(2,2,3,3-tetrafluorocyclobutyl)acetamide] and CC1(n2c(NC(=O)CC3CC(F)(F)C3(F)F)nc3cc(F)cc(C#N)c32)CCC1 (single isomer, unassigned) [Example 546, N-(7-cyano-5-fluoro-1-(1-methylcyclobutyl)-1H-benzo[d]imidazol-2-yl)-2-(2,2,3,3-tetrafluorocyclobutyl)acetamide] cannot be ordered by EC50: less than 1000 nM for the first, less than 1000 nM for the second.

C=Cc1c(F)ccc2nc(NC(=O)CC(C)(C)C)n(C3CCC3)c12 [Example 552, N-(1-cyclobutyl-6-fluoro-7-vinyl-1H-benzo[d]imidazol-2-yl)-3,3-dimethylbutanamide] and CC(C)(C)CC(=O)Nc1nc2ccc(C#N)c(OC(F)(F)F)c2n1C1CCC1 [Example 498, N-(6-cyano-1-cyclobutyl-7-(trifluoromethoxy)-1H-benzo[d]imidazol-2-yl)-3,3-dimethylbutanamide] cannot be ordered by EC50: less than 1000 nM for the first, less than 1000 nM for the second.

First: CC(C)(C)CC(=O)Nc1nc2ccc(C(C)(C)O)c(OC(F)(F)F)c2n1C1CCC1 [Example 501, N-(1-cyclobutyl-6-(2-hydroxypropan-2-yl)-7-(trifluoromethoxy)-1H-benzo[d]imidazol-2-yl)-3,3-dimethylbutanamide]
Second: CC1(n2c(NC(=O)CC(C)(C)C(F)(F)F)nc3ccc(Cl)c(F)c32)CCC1 [Example 555, N-(6-chloro-7-fluoro-1-(1-methylcyclobutyl)-1H-benzo[d]imidazol-2-yl)-4,4,4-trifluoro-3,3-dimethylbutanamide]
The EC50 of the first is higher: 1000 to 3000 nM for the first, less than 1000 nM for the second.

CC1(n2c(NC(=O)CC3(C(F)(F)F)CC3)nc3cc(F)c(F)cc32)CCC1 [Example 538, N-(5,6-difluoro-1-(1-methylcyclobutyl)-1H-benzo[d]imidazol-2-yl)-2-(1-(trifluoromethyl)cyclopropyl)acetamide] and CC(C(=O)Nc1nc2cc(F)c(F)cc2n1C1(C)CCC1)C1(C(F)(F)F)CC1 (single isomer, unassigned) [Example 540, N-(5,6-difluoro-1-(1-methylcyclobutyl)-1H-benzo[d]imidazol-2-yl)-2-(1-(trifluoromethyl)cyclopropyl)propanamide] cannot be ordered by EC50: less than 1000 nM for the first, less than 1000 nM for the second.

CC(C)(CC(=O)Nc1nc2cc(F)cc(C#N)c2n1C1(C)CCC1)C1CC1 [Example 547, N-(7-cyano-5-fluoro-1-(1-methylcyclobutyl)-1H-benzo[d]imidazol-2-yl)-3-cyclopropyl-3-methylbutanamide] and COc1cc(C#N)cc2c1nc(NC(=O)CC(C)(C)C(F)(F)F)n2C1(C)CCC1 [Example 554] cannot be ordered by EC50: less than 1000 nM for the first, less than 1000 nM for the second.

CC(C(=O)Nc1nc2c(F)cc(C#N)cc2n1C1(C)CCC1)C1(C(F)(F)F)CC1 (single isomer, unassigned) [Example 503, N-(6-cyano-4-fluoro-1-(1-methylcyclobutyl)-1H-benzo[d]imidazol-2-yl)-2-(1-(trifluoromethyl)cyclopropyl)propanamide] and [2H]C([2H])([2H])C(CC(=O)Nc1nc2c(F)cc(C#N)cc2n1C1(C)CCC1)(C([2H])([2H])[2H])C([2H])([2H])[2H] [Example 521, N-(6-cyano-4-fluoro-1-(1-methylcyclobutyl)-1H-benzo[d]imidazol-2-yl)-3,3-bis(methyl-d3)butanamide] cannot be ordered by EC50: less than 1000 nM for the first, less than 1000 nM for the second.

CC1(n2c(NC(=O)CC3CC(F)(F)C3(F)F)nc3ccc(C#N)c(OC(F)(F)F)c32)CCC1 (single isomer, unassigned) [Example 493, N-(6-cyano-1-(1-methylcyclobutyl)-7-(trifluoromethoxy)-1H-benzo[d]imidazol-2-yl)-2-(2,2,3,3-tetrafluorocyclobutyl)acetamide] and CC1(n2c(NC(=O)CC3CC(F)(F)C3(F)F)nc3ccc(F)c(C#N)c32)CCC1 (single isomer, unassigned) [Example 536, N-(7-cyano-6-fluoro-1-(1-methylcyclobutyl)-1H-benzo[d]imidazol-2-yl)-2-(2,2,3,3-tetrafluorocyclobutyl)acetamide] cannot be ordered by EC50: less than 1000 nM for the first, less than 1000 nM for the second.
